In brackets after ≈: the same amount, converted by molar mass.
Columns and labels:
Bel-7402 = assay: Cytotoxicity against human Bel7402 cells after 24 hrs by SRB method; conditions: Bel-7402, 24 h
HCT-116 = assay: Cytotoxicity against human HCT116 cells after 24 hrs by SRB method; conditions: HCT-116, 24 h
A549 = assay: Cytotoxicity against human A549 cells after 24 hrs by SRB method; conditions: A549, 24 h
K562 = assay: Cytotoxicity against human K562 cells after 72 hrs by MTT assay; conditions: K562, 72 h
HL-60 = assay: Cytotoxicity against human HL60 cells after 72 hrs by MTT assay; format: functional, cell-based; conditions: HL-60, 72 h
SH-SY5Y = assay: Cytotoxicity against human SH-SY5Y cells after 24 hrs by SRB method
HeLa = assay: Cytotoxicity against human HeLa cells after 24 hrs by SRB method
L02 = assay: Cytotoxicity against human L02 cells after 24 hrs by SRB method; conditions: L02, 24 h
U-87 MG = assay: Cytotoxicity against human U87 cells after 24 hrs by SRB method
MGC-803 = assay: Cytotoxicity against human MGC803 cells after 24 hrs by SRB method; conditions: MGC-803, 24 h
Proteus = assay: Antibacterial activity against Proteus by conventional broth dilution assay; format: functional

Work on `COc1cc(-c2c(OC)cc(-c3ccccc3)c(OC)c2O)cc(CC=C(C)C)c1O` yielded an IC50 (Bel-7402) of 11.1 µM, an IC50 (HCT-116) of 14.7 µM and an IC50 (A549) of 14.8 µM. It also gave an IC50 (K562) of over 50 µM, an IC50 (HL-60) of over 50 µM and an IC50 (SH-SY5Y) of 16.7 µM. It also gave an IC50 (HeLa) of 11.4 µM, an IC50 (L02) of 24.4 µM and an IC50 (U-87 MG) of over 50 µM. It also gave an IC50 (MGC-803) of 14.5 µM.
Work on `COc1ccc(-c2c(OC)cc(-c3ccc(O)c(CC=C(C)C)c3)c(OC)c2O)cc1OC` yielded an IC50 (Bel-7402) of over 50 µM, an IC50 (HCT-116) of 6.2 µM and an IC50 (A549) of 7.6 µM. For the same compound, the IC50 (K562) was 15.9 µM, the IC50 (HL-60) was over 50 µM and the IC50 (SH-SY5Y) was 15.6 µM. For the same compound, the IC50 (HeLa) was 8.5 µM, the IC50 (L02) was over 50 µM and the IC50 (U-87 MG) was over 50 µM. The IC50 (MGC-803) was 8.1 µM.
`COc1c(-c2ccccc2)cc(OC)c2c1oc1c3c(c(O)cc12)OC(C)(C)C=C3` was tested, and the IC50 (Bel-7402) was over 50 µM, the IC50 (HCT-116) was over 50 µM and the IC50 (A549) was over 50 µM. The IC50 (K562) was over 50 µM, the IC50 (HL-60) was over 50 µM and the IC50 (SH-SY5Y) was over 50 µM. The IC50 (HeLa) was over 50 µM, the IC50 (L02) was over 50 µM and the IC50 (U-87 MG) was over 50 µM. It also gave an IC50 (MGC-803) of over 50 µM.
In the case of `COc1cc2oc3c(OC)c(-c4cc(CC=C(C)C)c(O)c(OC)c4)cc(OC)c3c2cc1OC`, the IC50 (Bel-7402) is reported as over 50 µM, the IC50 (HCT-116) is reported as over 50 µM and the IC50 (A549) is reported as over 50 µM. The IC50 (K562) was over 50 µM, the IC50 (HL-60) was over 50 µM and the IC50 (SH-SY5Y) was over 50 µM. The IC50 (HeLa) was over 50 µM, the IC50 (L02) was over 50 µM and the IC50 (U-87 MG) was over 50 µM. The IC50 (MGC-803) was over 50 µM.
Compound `COc1c(-c2ccccc2)cc(OC)c2c1oc1cc(O)c(OCC=C(C)C)cc12` has an IC50 (Bel-7402) of 14.9 µM, an IC50 (HCT-116) of 19.8 µM and an IC50 (A549) of 19.1 µM. For the same compound, the IC50 (K562) was 5 µM, the IC50 (HL-60) was over 50 µM and the IC50 (SH-SY5Y) was 17.9 µM. The IC50 (HeLa) was 14 µM, the IC50 (L02) was 16.7 µM and the IC50 (U-87 MG) was 10.3 µM. It also gave an IC50 (MGC-803) of 16.3 µM.
`COc1cc(-c2ccc(O)c(O)c2)c(OC)c(O)c1-c1ccc(OCC=C(C)C)c(O)c1` gave an MIC (Proteus) of 22 µg/mL (≈ 50.2 µM), an IC50 (Bel-7402) of over 50 µM and an IC50 (HCT-116) of 0.5 µM. For the same compound, the IC50 (A549) was 0.4 µM, the IC50 (K562) was over 50 µM and the IC50 (HL-60) was over 50 µM. The IC50 (SH-SY5Y) was 0.6 µM, the IC50 (HeLa) was 2 µM and the IC50 (L02) was 3.5 µM. The IC50 (U-87 MG) was 13.8 µM and the IC50 (MGC-803) was 0.7 µM.
`COc1cc(-c2c(OC)cc(-c3ccccc3)c(OC)c2O)ccc1OC/C=C(\C)CO` showed an IC50 (Bel-7402) of 12.4 µM, an IC50 (HCT-116) of 9.3 µM and an IC50 (A549) of 10.2 µM. For the same compound, the IC50 (K562) was over 50 µM, the IC50 (HL-60) was 7.1 µM and the IC50 (SH-SY5Y) was 10.4 µM. The IC50 (HeLa) was 8.3 µM, the IC50 (L02) was 19.9 µM and the IC50 (U-87 MG) was over 50 µM. For the same compound, the IC50 (MGC-803) was 11 µM.
Compound `COc1cc2oc3c(OC)c(-c4cc(CC=C(C)C)c(O)c(OC)c4)cc(OC)c3c2cc1O` has an IC50 (Bel-7402) of 16 µM, an IC50 (HCT-116) of 0.9 µM and an IC50 (A549) of 2.8 µM. For the same compound, the IC50 (K562) was over 50 µM, the IC50 (HL-60) was 3.4 µM and the IC50 (SH-SY5Y) was 2.2 µM. For the same compound, the IC50 (HeLa) was 10.1 µM, the IC50 (L02) was 17.9 µM and the IC50 (U-87 MG) was over 50 µM. The IC50 (MGC-803) was 1.4 µM.
Work on `COc1cc(-c2c(OC)cc(-c3ccccc3)c(OC)c2O)cc2c1OC(C)(C)CC2` yielded an IC50 (Bel-7402) of 12.6 µM, an IC50 (HCT-116) of 16.9 µM and an IC50 (A549) of 16.3 µM. For the same compound, the IC50 (K562) was over 50 µM, the IC50 (HL-60) was over 50 µM and the IC50 (SH-SY5Y) was 12.4 µM. For the same compound, the IC50 (HeLa) was 11.5 µM, the IC50 (L02) was 29.7 µM and the IC50 (U-87 MG) was over 50 µM. For the same compound, the IC50 (MGC-803) was 12.5 µM.

— ChEMBL document CHEMBL4342453, “Prenylated p-Terphenyls from a Mangrove Endophytic Fungus, Aspergillus candidus LDJ-5” (J Nat Prod, 2020)
